Results as given in patent publication US8071612B2, “6-alkenyl and 6-phenylalkyl substituted 2-quinolinones and 2-quinoxalinones as poly(ADP-ribose) polymerase inhibitors” (Janssen Pharmaceutica, NV, priority 2004, dated 2011).

Columns and labels:
PARP-1 enzyme [1] = target: T1, PARP-1 enzyme (Homo sapiens, UniProt P09874); assay: In vitro Scintillation Proximity Assay (SPA) for PARP-1 inhibitory activity; type: biochemical; conditions: nicked DNA activated PARP-1, [3H]-NAD+, biotinylated histones; read-out: In vitro SPA pIC50 (converted)
T1 construct: made in house
Description: Compounds of the present invention were tested in an in vitro assay based on SPA technology (proprietary to Amersham Pharmacia Biotech).
In principle, the assay relies upon the well established SPA technology for the detection of poly(ADP-ribosyl)ation of biotinylated target proteins, i.e histones. This ribosylation is induced using nicked DNA activated PARP-1 enzyme and [^3H]-nicotinamide adenine dinucleotide ([^3H]-NAD^+) as ADP-ribosyl donor.
As inducer of PARP-1 enzyme activity, nicked DNA was prepared. For this, 25 mg of DNA (supplier: Sigma) was dissolved in 25 ml DNAse buffer (10 mM Tris-HCl, pH 7.4; 0.5 mg/ml Bovine Serum Albumine (BSA); 5 mM MgCl2.6H2O and 1 mM KCl) to which 50 μl DNAse solution (1 mg/ml in 0.15 M NaCl) was added. After an incubation of 90 min. at 37° C., the reaction was terminated by adding 1.45 g NaCl, followed by a further incubation at 58° C. for 15 min. The reaction mixture was cooled on ice and dialysed at 4° C. for respectively 1.5 and 2 hours against 1.5 l of 0.2 M KCl, and twice against 1.5 l of 0.01 M KCl for 1.5 and 2 h respectively. The mixture was aliquoted and stored at −20° C. Histones (1 mg/ml, type II-A, supplier: Sigma) were biotinylated using the biotinylation kit of Amersham and stored aliquoted at −20° C. A stock solution of 100 mg/ml SPA poly(vinyl toluene) (PVT) beads (supplier: Amersham) was made in PBS. A stock solution of [^3]H-NAD^+ was made by adding 120 μl of [^3H]-NAD^+ (0.1 mCi/ml, supplier: NEN) to 6 ml incubation buffer (50 mM Tris/HCl, pH 8; 0.2 mM DTT; 4 mM MgCl2). A solution of 4 mM NAD^+ (supplier: Roche) was made in incubation buffer (from a 100 mM stock solution in water stored at −20° C.). The PARP-1 enzyme was produced using art known techniques, i.e. cloning and expression of the protein starting from human liver cDNA. Information concerning the used protein sequence of the PARP-1 enzyme including literature references can be found in the Swiss-Prot database under primary accession number P09874. Biotinylated histones and PVT-SPA beads were mixed and pre-incubated for 30 min. at room temperature. PARP-1 enzyme (concentration was lot dependent) was mixed with the nicked DNA and the mixture was pre-incubated for 30 min. at 4° C. Equal parts of this histones/PVT-SPA beads solution and PARP-1 enzyme/DNA solution were mixed and 75 μl of this mixture together with 1 μl of compound in DMSO and 25 μl of [^3H]-NAD^+ was added per well into a 96-well microtiterplate. The final concentrations in the incubation mixture were 2 μg/ml for the biotinylated histones, 2 mg/ml for the PVT-SPA beads, 2 μg/ml for the nicked DNA and between 5-10 μg/ml for the PARP-1 enzyme. After incubation of the mixture for 15 min. at room temperature, the reaction was terminated by adding 100 μl of 4 mM NAD^+ in incubation buffer (final concentration 2 mM) and plates were mixed.
The beads were allowed to sediment for at least 15 min. and plates transferred to a TopCountNXT™ (Packard) for scintillation counting, values were expressed as counts per minute (cpm). For each experiment, controls (containing PARP-1 enzyme and DMSO without compound), a blank incubation (containing DMSO but no PARP-1 enzyme or compound) and samples (containing PARP-1 enzyme and compound dissolved in DMSO) were run in parallel. All compounds tested were dissolved and eventually further diluted in DMSO. In first instance, compounds were tested at a concentration of 10^−5 M or 10^−6M. […] In each test, the blank value was subtracted from both the control and the sample values. The control sample represented maximal PARP-1 enzyme activity. For each sample, the amount of cpm was expressed as a percentage of the mean cpm value of the controls. When appropriate, IC50-values (concentration of the drug, needed to reduce the PARP-1 enzyme activity to 50% of the control) were computed using linear interpolation between the experimental points just above and below the 50% level. […]

PARP-1 enzyme [2] = target: T1, PARP-1 enzyme; assay: In vitro filtration assay for PARP-1 inhibitory activity; type: biochemical; conditions: nicked DNA activated PARP-1, [32P]-NAD, histones; read-out: In vitro filtration assay pIC50 (converted)
Description: Compounds of the present invention were tested in an in vitro filtration assay assessing PARP-1 activity (triggered in the presence of nicked DNA) by means of its histone poly (ADP-ribosyl)ation activity using [^32P]-NAD as ADP-ribosyl donor. The radioactive ribosylated histones were precipitated by trichloroacetic acid (TCA) in 96-well filterplates and the incorporated [^32P] measured using a scintillation counter
A mixture of histones (stock solution: 5 mg/ml in H2O), NAD (stock solution: 100 mM in H2O), and [^32P]-NAD^+ in incubation buffer (50 mM Tris/HCl, pH 8; 0.2 mM DTT; 4 mM MgCl2) was made. A mixture of the PARP-1 enzyme (5-10 μg/ml) and nicked DNA was also made. The nicked DNA was prepared as described in the in vitro SPA for PARP-1 inhibitory activity. Seventy-five μl of the PARP-1 enzyme/DNA mixture together with 1 μl of compound in DMSO and 25 μl of histones-NAD^+/[^32P]-NAD^+ mixture was added per well of a 96-well filterplate (0.45 μm, supplier Millipore). The final concentrations in the incubation mixture were 2 μg/ml for the histones, 0.1 mM for the NAD^+, […] (0.5 μC) for the [^32P]-NAD^+ and 2 μg/ml for the nicked DNA. Plates were incubated for 15 min. at room temperature and the reaction was terminated by the addition of 10 μl ice cold 100% TCA followed by the addition of 10 μl ice-cold BSA solution (1% in H2O). The protein fraction was allowed to precipitate for 10 min. at 4° C. and plates were vacuum filtered. The plates were subsequently washed with, for each well, 1 ml of 10% ice cold TCA, 1 ml of 5% ice cold TCA and 1 ml of 5% TCA at room temperature. Finally 100 μl of scintillation solution (Microscint 40, Packard) was added to each well and the plates were transferred to a TopCountNXT™ (supplier: Packard) for scintillation counting and values were expressed as counts per minute (cpm). For each experiment, controls (containing PARP-1 enzyme and DMSO without compound), a blank incubation (containing DMSO but no PARP-1 enzyme or compound) and samples (containing PARP-1 enzyme and compound dissolved in DMSO) were run in parallel. All compounds tested were dissolved and eventually further diluted in DMSO. In first instance, compounds were tested at a concentration of 10^−5M. […] In each test, the blank value was subtracted from both the control and the sample values. The control sample represented maximal PARP-1 enzyme activity. For each sample, the amount of cpm was expressed as a percentage of the mean cpm value of the controls. When appropriate, IC50-values (concentration of the drug, needed to reduce the PARP-1 enzyme activity to 50% of the control) were computed using linear interpolation between the experimental points just above and below the 50% level. Herein the effects of test compounds are expressed as pIC50 (the negative log value of the IC50-value). As a reference compound, 4-amino-1,8-naphthalimide was included to validate the filtration assay.

T1 sequence (P09874 whole entry): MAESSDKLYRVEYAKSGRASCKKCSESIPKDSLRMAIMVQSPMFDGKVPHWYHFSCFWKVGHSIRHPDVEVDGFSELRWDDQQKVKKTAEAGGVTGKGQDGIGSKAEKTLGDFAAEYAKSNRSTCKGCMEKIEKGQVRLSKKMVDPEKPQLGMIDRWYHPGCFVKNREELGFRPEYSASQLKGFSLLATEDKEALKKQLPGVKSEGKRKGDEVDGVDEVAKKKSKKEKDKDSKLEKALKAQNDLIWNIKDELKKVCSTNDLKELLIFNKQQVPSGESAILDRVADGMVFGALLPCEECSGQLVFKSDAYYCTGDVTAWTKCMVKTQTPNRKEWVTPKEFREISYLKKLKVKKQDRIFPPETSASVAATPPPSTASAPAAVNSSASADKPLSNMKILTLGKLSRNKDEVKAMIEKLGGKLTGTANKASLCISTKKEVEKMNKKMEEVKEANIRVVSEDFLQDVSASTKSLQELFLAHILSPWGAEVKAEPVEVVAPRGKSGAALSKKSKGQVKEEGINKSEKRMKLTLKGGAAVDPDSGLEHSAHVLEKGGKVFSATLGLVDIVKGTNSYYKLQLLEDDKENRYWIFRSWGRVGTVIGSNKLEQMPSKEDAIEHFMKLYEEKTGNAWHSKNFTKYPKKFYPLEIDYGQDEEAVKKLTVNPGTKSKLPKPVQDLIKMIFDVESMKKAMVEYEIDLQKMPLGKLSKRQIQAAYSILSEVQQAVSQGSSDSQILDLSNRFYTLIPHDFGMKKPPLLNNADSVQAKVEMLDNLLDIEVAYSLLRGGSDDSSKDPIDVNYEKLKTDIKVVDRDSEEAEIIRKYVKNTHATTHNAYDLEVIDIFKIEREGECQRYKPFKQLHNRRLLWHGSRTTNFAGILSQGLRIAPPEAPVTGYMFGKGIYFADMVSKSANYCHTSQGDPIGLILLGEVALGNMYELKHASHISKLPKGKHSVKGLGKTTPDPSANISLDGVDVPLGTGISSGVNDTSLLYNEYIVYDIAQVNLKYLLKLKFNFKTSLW

Row | Compound | melting point [°C] | IC50 (PARP-1 enzyme [1]) [nM] | IC50 (PARP-1 enzyme [2]) [nM]
1 | Cc1cc2cc(C(c3ccccc3)c3cncn3C)ccc2[nH]c1=O (centres unmarked) (hydrate or solvate) [Compound 10] | 240 | – | –
2 | CCc1cc2cc([C@@H](CCN3CCCCC3)c3ccc4c(c3)OCCO4)ccc2[nH]c1=O (single isomer, unassigned) [Compound 144] | 159 | – | –
3 | CCc1cc2cc([C@H](CCN3CCCCC3)c3ccc4c(c3)OCCO4)ccc2[nH]c1=O (single isomer, unassigned) [Compound 145] | 172 | – | –
4 | CCc1cc2cc(C(=O)c3ccc4c(c3)OCCO4)ccc2[nH]c1=O [Compound 2] | 255 | 735 | –
5 | COCCNC1CCN(C(c2ccc3c(c2)OCCO3)c2ccc3[nH]c(=O)c4ccccc4c3c2)CC1 (centres unmarked) [Compound 11] | 116 | 7.29 | –
6 | CCc1cc2cc(C(O)c3ccc4c(c3)OCO4)ccc2[nH]c1=O (centres unmarked) [Compound 12] | 211 | 40.1 | –
7 | Cc1cccc(C(NC=O)c2ccc3[nH]c(=O)c(C)cc3c2)c1 (centres unmarked) [Compound 98] | – | 274 | 3830
8 | Cc1cc2cc(C(NC=O)c3ccc4c(c3)OCO4)ccc2[nH]c1=O (centres unmarked) [Compound 99] | – | 289 | 1470
9 | CCOC(=O)c1ccc(C(NC=O)c2ccc3[nH]c(=O)c(C)cc3c2)cc1 (centres unmarked) [Compound 100] | – | 502 | 3510
10 | COc1cccc(C(NC=O)c2ccc3[nH]c(=O)c(C)cc3c2)c1 (centres unmarked) [Compound 101] | – | 773 | 2840
11 | Cc1cc2cc(C(NC=O)c3ccc(F)cc3)ccc2[nH]c1=O (centres unmarked) [Compound 102] | – | 366 | 1590
12 | Cc1cc2cc(CCC(NC=O)c3ccccc3)ccc2[nH]c1=O (centres unmarked) [Compound 103] | – | 902 | 7730
13 | Cc1cc2cc(C(NC=O)c3cccc(Cl)c3)ccc2[nH]c1=O (centres unmarked) [Compound 104] | – | 501 | 2380
14 | Cc1cc2cc(C(NC=O)c3ccc(Cl)cc3)ccc2[nH]c1=O (centres unmarked) [Compound 105] | – | 618 | 1470
15 | Cc1cc2cc(C(NC=O)c3ccccc3)ccc2[nH]c1=O (centres unmarked) [Compound 106] | – | 493 | 1680
16 | COc1cccc(C(O)c2ccc3[nH]c(=O)c(C)cc3c2)c1 (centres unmarked) [Compound 107] | – | 841 | 10000
17 | CCOC(=O)c1ccc(C(O)c2ccc3[nH]c(=O)c(C)cc3c2)cc1 (centres unmarked) [Compound 109] | – | 755 | 2320

Row | Compound | melting point [°C] | IC50 (PARP-1 enzyme [1]) [nM] | IC50 (PARP-1 enzyme [2]) [nM]
18 | CCc1cc2cc(C(O)c3ccccc3)ccc2[nH]c1=O (centres unmarked) [Compound 110] | – | 277 | 2580
19 | Cc1cc2cc(C(O)c3ccc4c(c3)OCO4)ccc2[nH]c1=O (centres unmarked) [Compound 111] | – | 611 | 4430
20 | C#CC(O)(c1ccccc1)c1ccc2[nH]c(=O)c(C)cc2c1 (centres unmarked) [Compound 112] | – | 689 | 2710
21 | CCc1nc2cc(CC(=O)c3ccc(Cl)cc3)ccc2[nH]c1=O [Compound 113] | – | 556 | 5930
22 | CCc1nc2cc(CC(c3ccc(Cl)cc3)N3CCCCC3)ccc2[nH]c1=O (centres unmarked) [Compound 114] | – | 552 | 1580
23 | CCc1nc2cc(C(c3cccc(F)c3)n3ccnc3)ccc2[nH]c1=O (centres unmarked) [Compound 115] | – | 818 | 3440
24 | CCc1nc2cc(C(c3ccc(Cl)cc3)n3cnc(C)c3)ccc2[nH]c1=O (centres unmarked) [Compound 122] | – | 877 | 2700
25 | CCc1nc2cc(C(c3cccc(Cl)c3)n3ccnc3)ccc2[nH]c1=O (centres unmarked) [Compound 123] | – | 612 | 3300
26 | CCc1nc2cc(C(c3ccc(Cl)cc3)N3CCCCC3)ccc2[nH]c1=O (centres unmarked) [Compound 124] | – | 1570 | 1380
27 | CCc1nc2cc(C(c3ccc(F)cc3)n3ccnc3)ccc2[nH]c1=O (centres unmarked) [Compound 125] | – | 711 | 5610
28 | CCc1nc2cc(C(c3ccc(Cl)cc3)n3ccnc3)ccc2[nH]c1=O (centres unmarked) [Compound 126] | – | 573 | 2250
29 | CCc1nc2cc(C(c3ccccc3)n3ccnc3)ccc2[nH]c1=O (centres unmarked) [Compound 127, 3-ethyl-6-(1H-imidazol-1-ylphenylmethyl)-2(1H)-quinoxalinone] | – | 1110 | 3660
30 | COc1ccc(C(c2ccc3[nH]c(=O)c(C)nc3c2)n2ccnc2)cc1 (centres unmarked) [Compound 128, 6-[(1H-imidazol-1-yl)(4-methoxyphenyl)methyl]-3-methyl-2(1H)-quinoxalinone] | – | 361 | 2300
31 | Cc1cc2cc(/C(=C3\CCCN(C)C3)c3ccccc3)ccc2[nH]c1=O [Compound 134] | – | 299 | 1560
32 | Cc1cc2cc(/C(=C/CN(C)C)c3cccc4[nH]c(=O)c(C)cc34)ccc2[nH]c1=O [Compound 135] | – | 794 | 4180
33 | CCc1cc2cc(/C(=C/CN(C)C)c3ccccc3)ccc2[nH]c1=O [Compound 139] | – | 668 | 4120
34 | CCc1cc2cc(/C(=C\CN(C)C)c3ccccc3)ccc2[nH]c1=O [Compound 140] | – | 431 | 2150
